Assay results published in ChEMBL document CHEMBL5696442, “Discovery of type II inhibitors of TGFβ-activated kinase 1 (TAK1) and mitogen-activated protein kinase kinase kinase kinase 2 (MAP4K2)” (J Med Chem, 2015).
Activity calls are given as the source filed them. No cut-off for these calls is given here.

Experiments:
[1] = molecular target: Aurora kinase B (Homo sapiens) (UniProt Q96GD4); assay: Inhibition of AurB ATP labeling site in human Huh-7 cell lysate at 1 uM by KiNativ Profiling analysis relative to control; type: subcellular
[2] = molecular target: STE20/SPS1-related proline-alanine-rich protein kinase (Homo sapiens) (UniProt Q9UEW8); assay: Inhibition of STLK3 Lys2 labeling site in human Huh-7 cell lysate at 1 uM by KiNativ Profiling analysis relative to control; type: subcellular
[3] = molecular target: Serine/threonine-protein kinase OSR1 (Homo sapiens) (UniProt O95747); assay: Inhibition of OSR1 Lys2 labeling site in human Huh-7 cells at 1 uM by KiNativ Profiling analysis relative to control
[4] = molecular target: Cyclin-dependent kinase 9 (Homo sapiens) (UniProt P50750); assay: Inhibition of CDK9 K2 labeling site in human Huh-7 cells at 10 uM by KiNativ Profiling analysis relative to control; type: cell-based
[5] = molecular target: T1, Serine/threonine-protein kinase LATS1 (Homo sapiens) (UniProt O95835); assay: Inhibition of LATS1 (unknown origin) at 10 uM by Ambit Kinomescan binding assay
T1 sequence (whole entry): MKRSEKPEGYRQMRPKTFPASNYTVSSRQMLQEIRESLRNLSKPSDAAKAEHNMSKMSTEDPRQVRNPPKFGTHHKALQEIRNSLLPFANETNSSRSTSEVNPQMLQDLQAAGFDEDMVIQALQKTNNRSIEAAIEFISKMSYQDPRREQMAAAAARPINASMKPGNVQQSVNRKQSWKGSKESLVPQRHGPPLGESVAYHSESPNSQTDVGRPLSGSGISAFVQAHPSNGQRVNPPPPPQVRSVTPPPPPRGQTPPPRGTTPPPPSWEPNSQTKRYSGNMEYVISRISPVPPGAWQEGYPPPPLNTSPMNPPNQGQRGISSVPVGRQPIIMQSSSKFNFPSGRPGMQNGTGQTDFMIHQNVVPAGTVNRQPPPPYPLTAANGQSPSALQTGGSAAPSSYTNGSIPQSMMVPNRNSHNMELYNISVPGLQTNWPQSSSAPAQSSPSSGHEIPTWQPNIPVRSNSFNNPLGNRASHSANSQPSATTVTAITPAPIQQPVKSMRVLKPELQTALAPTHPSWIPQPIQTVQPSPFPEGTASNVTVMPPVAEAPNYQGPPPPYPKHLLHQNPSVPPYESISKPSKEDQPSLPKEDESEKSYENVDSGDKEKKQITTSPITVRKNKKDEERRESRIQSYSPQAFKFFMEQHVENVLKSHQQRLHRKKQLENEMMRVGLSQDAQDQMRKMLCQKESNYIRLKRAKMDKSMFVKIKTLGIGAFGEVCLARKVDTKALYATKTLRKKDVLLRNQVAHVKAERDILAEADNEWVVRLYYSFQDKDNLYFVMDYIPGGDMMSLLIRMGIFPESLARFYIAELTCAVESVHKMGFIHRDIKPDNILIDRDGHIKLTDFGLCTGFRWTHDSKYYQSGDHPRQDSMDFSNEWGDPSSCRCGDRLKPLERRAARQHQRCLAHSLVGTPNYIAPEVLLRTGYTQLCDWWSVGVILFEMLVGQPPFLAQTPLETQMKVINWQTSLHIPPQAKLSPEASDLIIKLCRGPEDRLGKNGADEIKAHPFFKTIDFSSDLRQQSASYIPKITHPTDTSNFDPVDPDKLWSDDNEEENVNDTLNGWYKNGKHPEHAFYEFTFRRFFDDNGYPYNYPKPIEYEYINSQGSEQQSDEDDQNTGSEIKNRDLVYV

[6] = molecular target: Peripheral plasma membrane protein CASK (Homo sapiens) (UniProt O14936); assay: Inhibition of CASK Lys1 labeling site in human A-375 cells at 5 uM by KiNativ Profiling analysis relative to control
[7] = molecular target: Serine/threonine-protein kinase Nek4 (Homo sapiens) (UniProt P51957); assay: Inhibition of NEK4 K2 labeling site in human Huh-7 cells at 10 uM by KiNativ Profiling analysis relative to control; type: cell-based
[8] = molecular target: Dual specificity mitogen-activated protein kinase kinase 2 (Homo sapiens) (UniProt P36507); assay: Inhibition of MAP2K2 Lys2 labeling site in human A-375 cells at 5 uM by KiNativ Profiling analysis relative to control; type: cell-based
[9] = molecular target: RAC-alpha serine/threonine-protein kinase (Homo sapiens) (UniProt P31749); assay: Inhibition of AKT1 (unknown origin) at 10 uM by Ambit Kinomescan binding assay
[10] = molecular target: Serine/threonine-protein kinase 4 (Homo sapiens) (UniProt Q13043); assay: Inhibition of MST1 Lys2 labeling site harbouring DIKAGNILLNTEGHAK in human A-375 cells at 0.05 uM by KiNativ Profiling analysis relative to control
[11] = molecular target: Cyclin-dependent kinase-like 2 (Homo sapiens) (UniProt Q92772); assay: Inhibition of CDKL2 (unknown origin) at 1 uM by Ambit Kinomescan binding assay relative to control; values are per cent of control
[12] = molecular target: Receptor-interacting serine/threonine-protein kinase 1 (Homo sapiens) (UniProt Q13546); assay: Inhibition of RIPK1 (unknown origin) at 1 uM by Ambit Kinomescan binding assay relative to control
[13] = molecular target: Serine/threonine-protein kinase pim-3 (Homo sapiens) (UniProt Q86V86); assay: Inhibition of PIM3 (unknown origin) at 1 uM by Ambit Kinomescan binding assay relative to control; values are per cent of control
[14] = Inhibition of KHS1 Lys1 labeling site in human A-375 cells at 0.5 uM by KiNativ Profiling analysis relative to control; conditions: condition cancer
[15] = molecular target: T2, Dual specificity mitogen-activated protein kinase kinase 6 (Homo sapiens) (UniProt P52564); assay: Inhibition of MEK6 (unknown origin) at 1 uM by Ambit Kinomescan binding assay relative to control; values are per cent of control
T2 sequence (whole entry): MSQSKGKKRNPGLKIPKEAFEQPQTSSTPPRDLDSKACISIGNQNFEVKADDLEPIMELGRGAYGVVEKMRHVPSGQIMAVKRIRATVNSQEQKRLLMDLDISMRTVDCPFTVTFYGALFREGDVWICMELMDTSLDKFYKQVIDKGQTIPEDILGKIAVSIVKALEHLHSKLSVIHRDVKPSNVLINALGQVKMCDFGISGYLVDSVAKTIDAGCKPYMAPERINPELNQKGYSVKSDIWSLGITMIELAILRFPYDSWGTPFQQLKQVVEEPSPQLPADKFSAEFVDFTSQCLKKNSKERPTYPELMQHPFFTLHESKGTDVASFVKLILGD

[16] = molecular target: Serine/threonine-protein kinase 4 (Homo sapiens) (UniProt Q13043); assay: Inhibition of MST1 Lys1 labeling site harbouring ETGQIVAIKQVPVESDLQEIIK in human A-375 cells at 0.05 uM by KiNativ Profiling analysis relative to control

Sequence of Serine/threonine-protein kinase 4 (Homo sapiens) (Q13043 whole entry, looked up): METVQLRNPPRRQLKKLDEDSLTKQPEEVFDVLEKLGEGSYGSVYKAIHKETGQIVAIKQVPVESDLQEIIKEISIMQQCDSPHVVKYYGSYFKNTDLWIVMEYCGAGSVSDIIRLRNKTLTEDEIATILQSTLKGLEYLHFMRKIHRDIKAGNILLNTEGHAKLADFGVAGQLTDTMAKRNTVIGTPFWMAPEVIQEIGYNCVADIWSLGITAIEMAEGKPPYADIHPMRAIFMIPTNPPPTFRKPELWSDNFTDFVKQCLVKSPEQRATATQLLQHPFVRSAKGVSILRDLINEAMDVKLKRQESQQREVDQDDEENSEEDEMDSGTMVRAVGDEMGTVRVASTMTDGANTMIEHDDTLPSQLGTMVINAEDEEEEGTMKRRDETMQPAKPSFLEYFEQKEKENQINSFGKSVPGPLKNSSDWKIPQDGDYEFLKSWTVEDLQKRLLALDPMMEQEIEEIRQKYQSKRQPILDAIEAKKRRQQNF
Sequence of Dual specificity mitogen-activated protein kinase kinase 2 (Homo sapiens) (P36507 whole entry): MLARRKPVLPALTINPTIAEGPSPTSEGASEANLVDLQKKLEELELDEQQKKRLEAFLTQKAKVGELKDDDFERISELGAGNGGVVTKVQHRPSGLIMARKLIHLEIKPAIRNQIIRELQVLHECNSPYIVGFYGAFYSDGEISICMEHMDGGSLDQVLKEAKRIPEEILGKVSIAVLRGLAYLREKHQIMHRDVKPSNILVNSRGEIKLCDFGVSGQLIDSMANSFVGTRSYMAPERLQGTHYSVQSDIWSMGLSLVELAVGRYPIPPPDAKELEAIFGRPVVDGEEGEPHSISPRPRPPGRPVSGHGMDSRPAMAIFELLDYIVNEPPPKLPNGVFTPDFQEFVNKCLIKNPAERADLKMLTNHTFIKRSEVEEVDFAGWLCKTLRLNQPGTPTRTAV
Sequence of Serine/threonine-protein kinase Nek4 (Homo sapiens) (P51957 whole entry, looked up): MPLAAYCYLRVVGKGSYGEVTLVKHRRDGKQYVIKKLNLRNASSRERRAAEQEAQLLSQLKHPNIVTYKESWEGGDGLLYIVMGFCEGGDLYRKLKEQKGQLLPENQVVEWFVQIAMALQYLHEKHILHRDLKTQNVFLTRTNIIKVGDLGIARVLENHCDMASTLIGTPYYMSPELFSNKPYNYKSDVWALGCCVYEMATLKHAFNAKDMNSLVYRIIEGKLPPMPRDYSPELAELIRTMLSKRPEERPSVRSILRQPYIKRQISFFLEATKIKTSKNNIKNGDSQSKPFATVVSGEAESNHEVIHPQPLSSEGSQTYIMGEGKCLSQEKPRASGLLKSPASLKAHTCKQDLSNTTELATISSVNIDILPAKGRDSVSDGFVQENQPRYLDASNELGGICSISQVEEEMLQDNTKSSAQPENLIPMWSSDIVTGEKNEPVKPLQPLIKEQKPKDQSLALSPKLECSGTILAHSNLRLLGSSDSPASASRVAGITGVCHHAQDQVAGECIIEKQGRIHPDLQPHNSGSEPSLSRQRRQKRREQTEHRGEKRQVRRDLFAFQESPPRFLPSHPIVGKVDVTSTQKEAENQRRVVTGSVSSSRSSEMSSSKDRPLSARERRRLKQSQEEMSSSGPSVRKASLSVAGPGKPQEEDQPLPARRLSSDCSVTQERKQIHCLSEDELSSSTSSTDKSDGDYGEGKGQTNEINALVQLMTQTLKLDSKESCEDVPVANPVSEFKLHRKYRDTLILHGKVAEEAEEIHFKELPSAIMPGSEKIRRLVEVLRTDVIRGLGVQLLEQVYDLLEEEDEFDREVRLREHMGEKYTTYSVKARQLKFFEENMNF
Sequence of Receptor-interacting serine/threonine-protein kinase 1 (Homo sapiens) (Q13546 whole entry): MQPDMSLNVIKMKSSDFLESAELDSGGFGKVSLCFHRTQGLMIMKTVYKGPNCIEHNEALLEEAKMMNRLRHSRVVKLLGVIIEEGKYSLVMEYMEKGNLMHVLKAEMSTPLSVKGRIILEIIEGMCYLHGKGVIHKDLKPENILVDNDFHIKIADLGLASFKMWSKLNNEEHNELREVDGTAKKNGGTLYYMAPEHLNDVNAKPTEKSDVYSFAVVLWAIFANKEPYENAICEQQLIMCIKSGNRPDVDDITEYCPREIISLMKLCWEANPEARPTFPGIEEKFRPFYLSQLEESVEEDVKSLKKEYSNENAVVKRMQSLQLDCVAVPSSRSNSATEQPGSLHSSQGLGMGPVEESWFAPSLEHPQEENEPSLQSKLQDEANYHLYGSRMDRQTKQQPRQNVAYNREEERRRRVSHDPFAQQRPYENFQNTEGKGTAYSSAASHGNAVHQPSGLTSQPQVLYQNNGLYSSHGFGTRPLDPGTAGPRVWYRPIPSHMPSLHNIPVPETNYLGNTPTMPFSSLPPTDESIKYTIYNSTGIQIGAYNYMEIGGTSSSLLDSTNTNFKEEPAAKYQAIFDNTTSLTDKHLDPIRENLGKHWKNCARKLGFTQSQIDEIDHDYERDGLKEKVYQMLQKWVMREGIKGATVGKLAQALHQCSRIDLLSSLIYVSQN
Sequence of Serine/threonine-protein kinase OSR1 (Homo sapiens) (O95747 whole entry, looked up): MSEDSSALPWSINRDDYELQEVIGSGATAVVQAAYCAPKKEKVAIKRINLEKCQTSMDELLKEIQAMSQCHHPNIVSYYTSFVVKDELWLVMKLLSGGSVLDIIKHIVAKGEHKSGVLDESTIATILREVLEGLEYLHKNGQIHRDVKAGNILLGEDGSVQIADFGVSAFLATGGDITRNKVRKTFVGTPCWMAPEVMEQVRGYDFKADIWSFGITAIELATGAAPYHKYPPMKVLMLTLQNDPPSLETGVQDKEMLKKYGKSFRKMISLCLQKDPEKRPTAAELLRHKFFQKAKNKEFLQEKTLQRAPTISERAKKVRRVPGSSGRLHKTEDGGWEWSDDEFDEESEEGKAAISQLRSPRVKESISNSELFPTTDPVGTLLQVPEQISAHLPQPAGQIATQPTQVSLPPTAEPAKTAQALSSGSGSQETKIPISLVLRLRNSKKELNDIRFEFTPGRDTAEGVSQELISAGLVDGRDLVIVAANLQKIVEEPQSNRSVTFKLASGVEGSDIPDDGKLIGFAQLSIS
Sequence of Aurora kinase B (Homo sapiens) (Q96GD4 whole entry): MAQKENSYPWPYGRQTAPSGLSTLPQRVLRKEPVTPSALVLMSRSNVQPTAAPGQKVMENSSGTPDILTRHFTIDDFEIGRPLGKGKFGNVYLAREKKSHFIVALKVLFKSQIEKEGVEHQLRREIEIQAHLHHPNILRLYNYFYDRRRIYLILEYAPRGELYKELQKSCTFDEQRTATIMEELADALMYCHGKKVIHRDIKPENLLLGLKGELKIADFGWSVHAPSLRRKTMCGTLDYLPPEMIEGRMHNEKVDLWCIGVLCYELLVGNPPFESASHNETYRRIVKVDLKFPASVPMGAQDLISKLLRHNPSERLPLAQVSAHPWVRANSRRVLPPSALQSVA
Sequence of Peripheral plasma membrane protein CASK (Homo sapiens) (O14936 whole entry, looked up): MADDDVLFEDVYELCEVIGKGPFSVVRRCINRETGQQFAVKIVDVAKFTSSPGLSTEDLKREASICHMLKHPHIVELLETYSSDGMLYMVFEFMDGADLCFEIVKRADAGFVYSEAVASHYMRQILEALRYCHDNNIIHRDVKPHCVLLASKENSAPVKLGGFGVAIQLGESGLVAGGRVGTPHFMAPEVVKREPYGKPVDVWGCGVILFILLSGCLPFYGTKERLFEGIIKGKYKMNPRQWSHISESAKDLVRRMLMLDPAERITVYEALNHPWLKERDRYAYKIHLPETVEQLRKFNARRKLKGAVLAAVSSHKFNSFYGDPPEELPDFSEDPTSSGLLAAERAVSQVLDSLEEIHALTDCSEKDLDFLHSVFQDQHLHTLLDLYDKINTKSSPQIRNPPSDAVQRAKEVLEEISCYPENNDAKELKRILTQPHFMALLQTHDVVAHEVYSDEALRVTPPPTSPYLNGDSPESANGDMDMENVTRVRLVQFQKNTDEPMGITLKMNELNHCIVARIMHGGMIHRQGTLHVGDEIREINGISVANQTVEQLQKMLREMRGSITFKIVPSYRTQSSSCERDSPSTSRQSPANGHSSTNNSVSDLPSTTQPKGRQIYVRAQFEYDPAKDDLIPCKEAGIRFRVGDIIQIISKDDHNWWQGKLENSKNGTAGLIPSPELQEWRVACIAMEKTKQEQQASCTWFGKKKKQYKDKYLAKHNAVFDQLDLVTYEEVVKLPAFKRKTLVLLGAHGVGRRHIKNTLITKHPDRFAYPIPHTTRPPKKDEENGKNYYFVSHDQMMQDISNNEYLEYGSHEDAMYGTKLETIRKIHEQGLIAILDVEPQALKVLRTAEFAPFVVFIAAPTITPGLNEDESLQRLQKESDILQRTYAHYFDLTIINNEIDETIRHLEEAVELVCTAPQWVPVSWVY
Sequence of Cyclin-dependent kinase-like 2 (Homo sapiens) (Q92772 whole entry): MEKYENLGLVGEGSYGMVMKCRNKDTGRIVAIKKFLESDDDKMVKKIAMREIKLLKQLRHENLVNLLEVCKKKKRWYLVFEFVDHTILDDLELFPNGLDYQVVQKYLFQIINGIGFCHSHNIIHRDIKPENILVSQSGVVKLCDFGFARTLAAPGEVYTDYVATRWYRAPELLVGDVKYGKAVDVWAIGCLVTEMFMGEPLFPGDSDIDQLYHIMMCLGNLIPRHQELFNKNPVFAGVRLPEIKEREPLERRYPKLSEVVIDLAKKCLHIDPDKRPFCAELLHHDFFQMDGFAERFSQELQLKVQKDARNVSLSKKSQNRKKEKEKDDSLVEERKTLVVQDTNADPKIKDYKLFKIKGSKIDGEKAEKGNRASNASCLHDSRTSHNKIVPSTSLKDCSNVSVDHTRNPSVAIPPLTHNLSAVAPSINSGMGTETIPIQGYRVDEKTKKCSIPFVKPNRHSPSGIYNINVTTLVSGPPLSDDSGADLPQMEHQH

CNc1cc(Oc2cc(C(=O)Nc3cc(N4CCN(C)CC4)cc(C(F)(F)F)c3)ccc2C)ncn1
inhibition [1]: 2.5%
inhibition [2]: 9.8%
inhibition [3]: 57.3%

CCN1CCN(Cc2ccc(NC(=O)c3ccc(C)c(Oc4ccnc5[nH]ccc45)c3)cc2C(F)(F)F)CC1
inhibition [4]: 0.4%
inhibition [5]: inactive
inhibition [6]: 6.6%
inhibition [7]: 11.4%
inhibition [8]: -10%
inhibition [9]: inactive

CCN1CCN(Cc2ccc(NC(=O)c3ccc(C)c(/C=C/c4cnc5[nH]ccc5c4OC)c3)cc2C(F)(F)F)CC1
inhibition [10]: -7%
residual activity [11]: 4.2%
inhibition [12]: 15%
residual activity [13]: 100%
inhibition at 0.5 µM [14]: 53.7%
residual activity [15]: 100%
inhibition [16]: 11.9%
